# Assay: Modulation of CFTR F508 deletion/MF mutant in HBE cells assessed as change in short circuit current incubated for 18 to 24 hrs in presence of forskolin and amiloride by voltage-clamp based chamber assay
# Type: cell-based
# Conditions: Homo sapiens
row,EC50 [nM],Structure (SMILES)
1,< 500,Nc1cc(C(F)(F)F)c2nc1-c1nnc(o1)[C@@](O)(C(F)(F)F)CCCCC[C@@H]1CCCN21
2,< 500,Nc1cc(C(F)(F)F)c2nc1-c1nnc(o1)[C@@](O)(C(F)(F)F)CCCCCC1(CCC1)N2
3,< 500,Nc1cc(Br)c2nc1-c1nnc(o1)[C@@](O)(C(F)(F)F)CCCCC[C@@H]1CCCN21

# The remaining lines, values behind:
row,Structure (SMILES),EC50 [nM]
1,Nc1cc(C(F)(F)F)c2nc1-c1nnc(o1)[C@@](O)(C(F)(F)F)CCCCCC(c1ccccn1)N2 (stereo partly specified),< 500
2,Nc1cc(C(F)(F)F)c2nc1-c1nnc(o1)[C@@](O)(C(F)(F)F)CCCCCC1(CCCCC1)N2,< 500
3,Nc1cc(S(=O)(=O)c2ccccc2)c2nc1-c1nnc(o1)[C@@](O)(C(F)(F)F)CCCCC[C@@H]1CCCN21,< 500

# — ChEMBL document CHEMBL5120953, “Novel Macrocyclic 1,3,4-Oxadiazoles as CFTR Modulators for Treating Cystic Fibrosis” (ACS Med Chem Lett, 2022)
